Source: patent US9120749B2, “Quinoline derivatives and MELK inhibitors containing the same” (ONCOTHERAPY SCIENCE, INC., priority 2010, dated 2015)
Structures can show the parent of a compound that is named as a salt. Where two headings read alike, the source gives them in different places.

What was measured:
T47D cells = assay: Cell-based assay: anti-proliferative activity, Cell Counting Kit-8, 72 hours (T47D)
Outline: (§1)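 Cellular growth is read by CCK-8 colorimetric kit 72 h after inhibitor addition to seeded cells, and IC50 values are derived from the resulting data; MELK protein levels in these lines are checked beforehand by immunoblotting whole crude lysate.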

HT-1197 cells = assay: Cell-based assay: anti-proliferative activity, Cell Counting Kit-8, 72 hours (HT-1197, negative control without MELK expression); conditions: HT1197 cells (negative control), 72 hours
Outline: as §1

DU4475 cells = assay: Cell-based assay: anti-proliferative activity, Cell Counting Kit-8, 72 hours (DU4475)
22Rv1 cells = assay: Cell-based assay: anti-proliferative activity, Cell Counting Kit-8, 72 hours (22Rv1)
MELK = MELK (Homo sapiens, UniProt Q14680); assay: Kinase assay: MELK activity, phosphorylation of FITC-labeled histone H3 peptide measured by IMAP fluorescence polarization; type: biochemical; conditions: MELK kinase assay, IMAP fluorescence polarization, 50 micro-M ATP; read-out: IC50 (μM) (kinase assay)
Chain of MELK (Q14680 whole entry, looked up): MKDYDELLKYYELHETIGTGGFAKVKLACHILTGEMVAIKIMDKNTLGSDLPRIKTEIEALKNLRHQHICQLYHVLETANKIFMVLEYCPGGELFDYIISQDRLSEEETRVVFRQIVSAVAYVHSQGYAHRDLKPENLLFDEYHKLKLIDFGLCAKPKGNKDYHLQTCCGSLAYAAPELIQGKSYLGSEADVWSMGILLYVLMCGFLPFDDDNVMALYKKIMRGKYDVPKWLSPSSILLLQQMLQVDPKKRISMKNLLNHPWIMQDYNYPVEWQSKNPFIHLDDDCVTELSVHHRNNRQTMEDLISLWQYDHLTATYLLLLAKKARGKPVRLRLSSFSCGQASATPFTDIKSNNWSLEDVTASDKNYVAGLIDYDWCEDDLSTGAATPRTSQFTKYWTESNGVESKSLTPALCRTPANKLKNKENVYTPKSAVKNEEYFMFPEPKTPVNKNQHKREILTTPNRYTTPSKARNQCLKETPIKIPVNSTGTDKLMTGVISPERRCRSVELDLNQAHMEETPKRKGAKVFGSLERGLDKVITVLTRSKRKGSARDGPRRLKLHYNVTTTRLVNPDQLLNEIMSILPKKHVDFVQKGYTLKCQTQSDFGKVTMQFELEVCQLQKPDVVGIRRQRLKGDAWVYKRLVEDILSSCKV
Outline: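 FP readout: FITC-histone H3 peptide phosphorylation, read 0.5 h (RT) after stopping with 3x volume of IMAP progressive binding solution. Final DMSO 1%.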

A549 cells = assay: Cell-based assay: anti-proliferative activity, Cell Counting Kit-8, 72 hours (A549); conditions: 72 hours
Outline: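 A549 cells were seeded in 96-well plates and exposed to candidate inhibitors for 72 hours. Cell growth was then measured with Cell Counting Kit-8, and IC50 values were calculated from the resulting growth data.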

Row | Structure (SMILES) | IC50 (T47D cells; Homo sapiens, T47D, 72 h) [µM] | IC50 (HT-1197 cells; Homo sapiens, HT1197, 72 h) [µM] | IC50 (DU4475 cells; Homo sapiens, DU-4475) [µM] | IC50 (22Rv1 cells; Homo sapiens) [µM] | IC50 (MELK) [µM] | IC50 (A549 cells; Homo sapiens, A549, 72 h) [µM] | IC50 (T47D cells; 72 hours) [µM] | IC50 (HT-1197 cells) [µM] | IC50 (DU4475 cells) [µM] | IC50 (22Rv1 cells) [µM] | IC50 (A549 cells) [µM]
1 | CC(=O)c1cnc2ccc(-c3cn[nH]c3)cc2c1N[C@H]1CC[C@H](CN(C)C)CC1 [Example 912, 1-(4-((1R,4R)-4-((dimethylamino)methyl)cyclohexyl)amino)-6-(1H-pyrazol-4-yl)quinolin-3-yl)ethanone hydrochloride] | 4.2 | 3 | 1.4 | 1.7 | 0.074 | 1.3 |  |  |  |  | 
2 | CC(=O)c1cnc2ccc(-c3cc(F)c(O)c(Cl)c3)cc2c1N[C@H]1CC[C@H](C(=O)NCCN(C)C)CC1 [Example 893, (1r,4r)-4-((3-acetyl-6-(3-chloro-5-fluoro-4-hydroxyphenyl)quinolin-4-yl)amino)-N-(2-(dimethylamino)ethyl) cyclohexanecarboxamide hydrochloride] | 0.59 | 100 | 0.67 | 1.6 | 0.0052 | 100 |  |  |  |  | 
3 | CS(=O)(=O)c1cnc2ccc(-c3cc(Cl)c(O)c(Cl)c3)cc2c1Nc1ccc(N2CCCC(N)C2)nc1 (stereo not shown) [Example 913, 4-(4-(6-(3-aminopiperidin-1-yl)pyridin-3-ylamino)-3-(methylsulfonyl)quinolin-6-yl)-2,6-dichlorophenol] | 0.27 | 100 | 0.025 | 0.58 | 0.00094 | 2.6 |  |  |  |  | 
4 | CC(=O)c1cnc2cc(F)c(-c3cc(F)c(O)c(Cl)c3)cc2c1N[C@H]1CC[C@H](CN(C)C)CC1 [Example 904, 1-(6-(3-chloro-5-fluoro-4-hydroxy-phenyl)-4-((1R,4R)-4-((dimethylamino)methyl)cyclohexyl)amino)-7-fluoro-quinolin-3-yl)ethanone hydrochloride] | 0.51 | 1.6 | 0.26 | 0.33 | 0.017 | 0.43 |  |  |  |  | 
5 | CC(=O)c1cnc2ccc(-c3cc(F)c(O)c(Cl)c3)cc2c1N[C@H]1CC[C@H](NC(=O)CN(C)C)CC1 [Example 876] | 0.033 | 1.5 | 0.092 | 0.14 | 0.0088 | 0.16 |  |  |  |  | 
6 | CC(=O)c1cnc2ccc(-c3ccc4nc[nH]c4c3)cc2c1N[C@H]1CC[C@H](CN(C)C)CC1 [Example 911, 1-(6-(1H-benzo[d]imidazol-6-yl)-4-((1R,4R)-4-((dimethylamino)methyl)cyclohexyl)amino)quinolin-3-yl) ethanone hydrochloride] | 10 | 13 | 10 | 5.4 | 0.13 | 3.2 |  |  |  |  | 
7 | COc1cc(-c2cc3c(N[C@H]4CC[C@H](CN5CCCC5)CC4)c(C(C)=O)cnc3cc2F)cc(Cl)c1O [Example 926, 1-(6-(3-chloro-4-hydroxy-5-methoxy-phenyl)-7-fluoro-4-((1R,4R)-4-(pyrrolidin-1-ylmethyl)cyclohexyl)amino)quinolin-3-yl)ethanone hydrochloride] | 2.7 | 5 | 0.55 | 0.69 | 0.0079 | 0.61 |  |  |  |  | 
8 | CN(C)C1CCN(c2ccc(Nc3c(S(C)(=O)=O)cnc4ccc(-c5cc(F)c(O)c(Cl)c5)cc34)cn2)C1 (stereo not shown) [Example 889, 2-chloro-4-(4-((6-(3-(dimethylamino)pyrrolidin-1-yl)pyridin-3-yl)amino)-3-(methylsulfonyl)quinolin-6-yl)-6-fluorophenol hydrochloride] | 1.5 | 12 | 1.2 | 1.8 | 0.0092 | 2.5 |  |  |  |  | 
9 | CC(=O)c1cnc2ccc(-c3cc(F)c(O)c(Cl)c3)cc2c1N[C@H]1CC[C@H](NC(=O)C(N)C(C)C)CC1 (stereo partly shown) [Example 907] | 0.016 | 3.7 | 0.033 | 0.059 | 0.0047 | 0.18 |  |  |  |  | 
10 | CC(=O)c1cnc2ccc(-c3cc(F)c(O)c(Cl)c3)cc2c1Nc1cnc(C)c(CCN2CCCC2)c1 [Example 867, 1-(6-(3-chloro-5-fluoro-4-hydroxyphenyl)-4-((6-methyl-5-(2-(pyrrolidin-1-yl)ethyl)pyridin-3-yl)amino)quinolin-3-yl)ethanone] | 2.9 | 53 | 1.3 | 4.6 | 0.014 | 1.6 |  |  |  |  | 
11 | CC(=O)c1cnc2ccc(-c3cc(F)c(O)c(Cl)c3)cc2c1N[C@H]1CC[C@H](C(=O)N(C)C)CC1 [Example 870, (1r,4r)-4-((3-acetyl-6-(3-chloro-5-fluoro-4-hydroxyphenyl)quinolin-4-yl)amino)-N,N-dimethylcyclohexanecarboxamide hydrochloride] |  |  |  |  | 0.035 |  | 0.53 | 3.5 | 2.1 | 2.3 | 1.6
12 | CC(=O)c1cnc2ccc(-c3cc(Cl)c(O)c(Cl)c3)cc2c1N[C@H]1CC[C@H](NC(=O)CN(C)C)CC1 [Example 877, N-(1R,4R)-4-((3-acetyl-6-(3,5-dichloro-4-hydroxyphenyl)quinolin-4-yl)amino)cyclohexyl)-2-(dimethylamino)acetamide hydrochloride] | 0.11 | 2 | 0.11 | 0.18 | 0.0027 | 0.2 |  |  |  |  | 
13 | CC(=O)c1cnc2ccc(-c3ccc4nc[nH]c4c3)cc2c1Nc1ccc(N2CCN(C)CC2)nc1 [Example 901, 1-(6-(1H-benzo[d]imidazol-6-yl)-4-((6-(4-methylpiperazin-1-yl)pyridin-3-yl)amino)quinolin-3-yl)ethanone hydrochloride] | 1.2 | 9.1 | 9.5 | 2.1 | 0.1 | 2.3 |  |  |  |  | 
14 | CN1CCC(n2cc(Nc3c(C(=O)C(C)(C)C)cnc4ccc(-c5cc(F)c(O)c(Cl)c5)cc34)cn2)CC1 [Example 930, 1-(6-(3-chloro-5-fluoro-4-hydroxy-phenyl)-4-((1-(1-methylpiperidin-4-yl)-1H-pyrazol-4-yl)amino)quinolin-3-yl)-2,2-dimethylpropan-1-one hydrochloride] | 1.7 | 14 | 1.3 | 2.5 | 0.017 | 4.4 |  |  |  |  | 
15 | CC(=O)c1cnc2ccc(-c3cc(Cl)c(O)c(Cl)c3)cc2c1N[C@H]1CC[C@H](C(=O)N2CCN(C)CC2)CC1 [Example 898, 1-(6-(3,5-dichloro-4-hydroxyphenyl)-4-((1R,4R)-4-(4-methylpiperazine-1-carbonyl)cyclohexyl)amino) quinolin-3-yl)ethanone hydrochloride] | 0.44 | 3 | 0.96 | 0.78 | 0.0044 | 0.87 |  |  |  |  | 
16 | CC(=O)c1cnc2ccc(-c3cc(Cl)c(O)c(Cl)c3)cc2c1N[C@H]1CC[C@H](C(=O)NCCN(C)C)CC1 [Example 892, (1r,4r)-4-((3-acetyl-6-(3,5-dichloro-4-hydroxyphenyl)quinolin-4-yl)amino)-N-(2-(dimethylamino)ethyl)cyclo-hexanecarboxamide hydrochloride] | 0.59 | 100 | 0.4 | 1.1 | 0.0023 | 6.3 |  |  |  |  | 
17 | CC(=O)c1cnc2ccc(-c3cc(Cl)c(O)c(Cl)c3)cc2c1N[C@H]1CC[C@H](NC(=O)C2CCCN2C)CC1 (stereo partly drawn) [Example 875, N-(1R,4R)-4-((3-acetyl-6-(3,5-dichloro-4-hydroxyphenyl)quinolin-4-yl)amino)cyclohexyl)-1-methylpyrrolidine-2-carboxamide hydrochloride] | 0.14 | 4.4 | 0.21 | 0.29 | 0.0035 | 0.24 |  |  |  |  | 
18 | CC(=O)c1cnc2ccc(-c3cc(F)c(O)c(Cl)c3)cc2c1N[C@H]1CC[C@H](NC(=O)[C@H](C)N)CC1 (stereo in doubt) [Example 878] | 0.027 | 21 | 0.03 | 0.096 | 0.0079 | 0.83 |  |  |  |  | 
19 | CC(=O)c1cnc2cc(F)c(-c3cc(F)c(O)c(Cl)c3)cc2c1N[C@H]1CC[C@H](CN2CCCC2)CC1 [Example 925, 1-(6-(3-chloro-5-fluoro-4-hydroxy-phenyl)-7-fluoro-4-((1R,4R)-4-(pyrrolidin-1-ylmethyl)cyclohexyl)amino)quinolin-3-yl)ethanone hydrochloride] | 0.52 | 1.5 | 0.27 | 0.27 | 0.019 | 0.38 |  |  |  |  | 
20 | O=C(c1cnc2ccc(-c3cc(Cl)c(O)c(Cl)c3)cc2c1Nc1cccc(CCN2CCCC2)c1)C1CCCC1 [Example 927, cyclopentyl(6-(3,5-dichloro-4-hydroxy-phenyl)-4-((3-(2-(pyrrolidin-1-yl)ethyl)phenyl)amino)quinolin-3-yl) methanone hydrochloride] | 1.3 | 12 | 0.48 | 0.78 |  | 0.71 |  |  |  |  | 
21 | CN(C)C1CCN(c2ccc(Nc3c(S(C)(=O)=O)cnc4ccc(-c5cc(Cl)c(O)c(Cl)c5)cc34)cn2)C1 (stereo not shown) [Example 906, 2,6-dichloro-4-(4-((6-(3-(dimethyl-amino)pyrrolidin-1-yl)pyridin-3-yl)amino)-3-(methylsulfonyl)quinolin-6-yl)phenol hydrochloride] | 1.3 | 9.3 | 0.66 | 2 |  | 2 |  |  |  |  | 
